This is an account of results in US10941157B2, “Pesticidal compositions and uses thereof” (Gilead Apollo, LLC, priority 2015, dated 2021).

Converted amounts (≈) assume the structure as drawn.

The subject of test [1] is Blumeria graminis f. sp. hordei. Briefly: Foliar protection test for barley powdery mildew control. The class given is in vivo. The settings on record: foliar spray on Hordeum vulgare cv. Perry, inoculated 24 hours after treatment, evaluated 7 days later. In a few lines:
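Protective foliar test: compound atomized onto both leaf surfaces of 6-day-old Hordeum vulgare cv. Perry, followed after 24 h by spore-cloud inoculation from colonized untreated plants. Disease rated on leaves 7 days on, plants held at 20 to 22° C and 70% RH.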

Test [2] concerns Rhizoctonia solani (Rs). The experiment in a line: In vitro pathogen growth inhibition assay, Rs (mycelial plugs). The class given is cell-based. The conditions noted are these: Rhizoctonia solani, 48 h, ≥90% growth inhibition; mycelial plugs; 48 hours; vs 2% DMSO control; read-out: Compound Concentration (ppm) sufficient for ≥90% inhibition of Rs. An outline of the steps: (§1)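 Spores in 17% V8 liquid medium, or 1.5 mm Rs mycelial plugs in ¼ PDB, incubated with compound; final concentration checked by OD600 for precipitation. OD readings at 24 and 48 h, blank-subtracted, plus visual ratings; value is concentration giving ≥90% growth inhibition.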

The test system of test [3] is Fusarium moniliforme (Fm). Briefly: In vitro pathogen growth inhibition assay, Fm. The settings on record: Fusarium verticillioides; ≥90% growth inhibition; 48 hours; vs 2% DMSO control; read-out: Compound Concentration (ppm) sufficient for ≥90% inhibition of Fm. The class given is cell-based. In a few lines:
(§2)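 Value reported is the compound concentration reaching ≥90% growth inhibition, from OD readings at 24 and 48 h after blank subtraction, confirmed visually. Inoculum was spores diluted in 17% V8 medium, except Rs, using 1.5 mm mycelial plugs in ¼ PDB; actual compound concentration corrected via OD600.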

Test [4] relates to Fusarium graminearum. The class given is in vivo. The conditions noted are these: spray on flowering Triticum aestivum cv. Samson, inoculated 24 hours after treatment, evaluated 14 days later.
Test [5] deals with Puccinia triticina. Briefly: Foliar protection test for wheat leaf rust control. The class given is in vivo. The settings on record: foliar application to wheat (Triticum aestivum cv. Winterhawk), evaluated 10 days later.
In test [6] the test system is Botrtyis cinerea (Bc). Briefly: In vitro pathogen growth inhibition assay, Bc. The class given is cell-based. The settings on record: 48 h, ≥90% growth inhibition; 48 hours; vs 2% DMSO control; read-out: Compound Concentration (ppm) sufficient for ≥90% inhibition of Bc. In a few lines: as §2
Test [7] has as its system Fusarium virguliforme (Fv). The experiment in a line: In vitro pathogen growth inhibition assay, Fv. The class given is cell-based. The conditions noted are these: ≥90% growth inhibition, 48 hours, vs 2% DMSO control, read-out: Compound Concentration (ppm) sufficient for ≥90% inhibition of Fv. In a few lines:
as §1

For test [8], the system named is Mycosphaerella graminicola (synthetic Septoria tritici). Briefly: Foliar protection test for wheat septoria leaf blotch control. The settings on record: foliar spray on Triticum aestivum cv. WinterHawk, inoculated 1 hour after treatment, evaluated 16 days later. It is filed as in vivo.
Test [9] concerns Collectotrichum graminicola (Cg). The experiment in a line: In vitro pathogen growth inhibition assay, Cg. The class given is cell-based. The settings on record: 48 h, ≥90% growth inhibition; 48 hours; vs 2% DMSO control; read-out: Compound Concentration (ppm) sufficient for ≥90% inhibition of Cg. In a few lines: as §2
Test [10] deals with Sphaerotheca fuliginea. The experiment in a line: Foliar protection for cucumber powdery mildew control. The class given is in vivo. The settings on record: foliar spray on Cucumis sativus cv. Straight Eight, inoculated 24 hours after treatment, evaluated 7 days later. In a few lines: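 Protective foliar spray on 10-day-old Straight Eight cucumbers, with S. fuliginea spores dusted from infected stock plants 24 h after treatment. Disease developed at 23–27 °C, 60% RH and a 16 h photoperiod. Leaves were rated for mildew growth after 7 days; test rates 10 ppm or below.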

Test [11] relates to Diplodia maydis (Dm). Briefly: In vitro pathogen growth inhibition assay, Dm. The settings on record: Stenocarpella maydis, 48 h, ≥90% growth inhibition; 48 hours; vs 2% DMSO control; read-out: Compound Concentration (ppm) sufficient for ≥90% inhibition of Dm. The class given is cell-based. An outline of the steps: as §1
The subject of test [12] is Phakopsora pachyrhizi. The experiment in a line: Foliar protection test for Asian soybean rust control. It is filed as in vivo. The settings on record: foliar application to soybean (Glycine max AG4832), percent disease area evaluated 14 days later.
In test [13] the test system is Phytophthora capsici (Pc). Briefly: In vitro pathogen growth inhibition assay, Pc. The settings on record: 48 h, ≥90% growth inhibition, 48 hours, vs 2% DMSO control, read-out: Compound Concentration (ppm) sufficient for ≥90% inhibition of Pc. The class given is cell-based. In a few lines:
as §1

Test [14] deals with Septoria tritici (St). The experiment in a line: In vitro pathogen growth inhibition assay, St. The class given is cell-based. The settings on record: Zymoseptoria tritici, 48 h, ≥90% growth inhibition; 48 hours; vs 2% DMSO control; read-out: Compound Concentration (ppm) sufficient for ≥90% inhibition of St. An outline of the steps:
as §2

Turning to `COc1ccc(F)cc1[C@H](Cn1c(=O)n(C(C)(C)C(=O)NC(C)C)c(=O)c2c(C)c(-n3nccn3)sc21)OCC#N` [Compound I-210, (R)-2-(1-(2-(cyanomethoxy)-2-(5-fluoro-2-methoxyphenyl)ethyl)-5-methyl-2,4-dioxo-6-(2H-1,2,3-triazol-2-yl)-1,4-dihydrothieno[2,3-d]pyrimidin-3 (2H)-yl)-N-isopropyl-2-methylpropanamide], the “Barley Powdery Mildew Control at a compound concentration of 10 ppm or lower” value in [1] is listed as “AA (≥85% control of barley powdery mildew)”. Further, the IC90 in [2] was 0.08 µg/mL (≈ 0.137 µM); in test [3], 2 µg/mL (≈ 3.43 µM); in test [6], 0.4 µg/mL (≈ 0.685 µM); in test [7], 0.4 µg/mL (≈ 0.685 µM); in test [9], ≥ 0.4 µg/mL; in test [11] it was 0.4 µg/mL (≈ 0.685 µM). The IC90 in test [13] and in test [14] was > 50 µg/mL in each case. For the same molecule, the “Wheat Fusarium Head Blight Control at a compound concentration of 25 ppm or lower” value in [4] is “C (from 25 to 49% control of wheat fusarium head blight)”. Besides, the “Wheat Leaf Rust Control at a compound concentration of 10 ppm or lower” value (from here on “Wheat Leaf Rust Control … of 10 ppm or lower”) in test [5] is listed as “A (from 70% to 84% control of wheat leaf rust)”. Further, in test [8], the “Septoria Leaf Blotch Control at a compound concentration of 25 ppm or lower” value is “AA (≥85% control of wheat septoria leaf blotch)”. For the same molecule, the “Cucumber Powdery Mildew Control at a compound concentration of 10 ppm or lower” value in test [10] is “AA (≥85% control of cucumber powdery mildew)”. Also, in test [12], the “Asian Soybean Rust Control at a compound concentration of 25 ppm or lower” value (shortened to “Asian Soybean Rust Control … of 25 ppm or lower”) is reported as “AA (≥85% control of Asian soybean rust)”.

In the case of `COc1ccc(F)cc1[C@H](Cn1c(=O)n(C(C)(C)C(=O)NC(C)C)c(=O)c2c(C)c(-n3nccn3)sc21)OC[C@@H](C)C#N` [Compound I-211, 2-(1-((R)-2-((S)-2-cyanopropoxy)-2-(5-fluoro-2-methoxyphenyl)ethyl)-5-methyl-2,4-dioxo-6-(2H-1,2,3-triazol-2-yl)-1,4-dihydrothieno[2,3-d]pyrimidin-3 (2H)-yl)-N-isopropyl-2-methylpropanamide], the “Barley Powdery Mildew Control at a compound concentration of 10 ppm or lower” value in test [1] is “AA (≥85% control of barley powdery mildew)”. Also, the IC90 in test [2] was determined as 0.08 µg/mL (≈ 0.131 µM); in [3], 0.08 µg/mL (≈ 0.131 µM); in test [6] it was 0.4 µg/mL (≈ 0.654 µM); in test [7], 0.4 µg/mL (≈ 0.654 µM); in test [9], 0.08 µg/mL (≈ 0.131 µM); in test [11], 0.08 µg/mL (≈ 0.131 µM). Further, the IC90 in test [13] and in test [14] was > 50 µg/mL each time. For the same molecule, the “Wheat Fusarium Head Blight Control at a compound concentration of 25 ppm or lower” value in test [4] is recorded as “C (from 25 to 49% control of wheat fusarium head blight)”. Also, the “Wheat Leaf Rust Control … of 10 ppm or lower” value in test [5] was “A (from 70% to 84% control of wheat leaf rust)”. In addition, the “Septoria Leaf Blotch Control at a compound concentration of 25 ppm or lower” value in [8] is “AA (≥85% control of wheat septoria leaf blotch)”. For the same molecule, the “Cucumber Powdery Mildew Control at a compound concentration of 10 ppm or lower” value in test [10] is “AA (≥85% control of cucumber powdery mildew)”. Moreover, in test [12], the “Asian Soybean Rust Control … of 25 ppm or lower” value was “AA (≥85% control of Asian soybean rust)”.

Take `COc1ccc(F)cc1[C@H](Cn1c(=O)n(C(C)(C)C(=O)NC(C)C)c(=O)c2c(C)c(-n3nccn3)sc21)OC[C@H](C)C#N` [Compound I-212, 2-(1-((R)-2-((R)-2-cyanopropoxy)-2-(5-fluoro-2-methoxyphenyl)ethyl)-5-methyl-2,4-dioxo-6-(2H-1,2,3-triazol-2-yl)-1,4-dihydrothieno[2,3-d]pyrimidin-3 (2H)-yl)-N-isopropyl-2-methylpropanamide]: the “Barley Powdery Mildew Control at a compound concentration of 10 ppm or lower” value in test [1] was “AA (≥85% control of barley powdery mildew)”. Moreover, the IC90 was 0.08 µg/mL (≈ 0.131 µM) in test [2]; 0.08 µg/mL (≈ 0.131 µM) in test [3]; 0.4 µg/mL (≈ 0.654 µM) in test [6]; 0.4 µg/mL (≈ 0.654 µM) in test [7]; 0.08 µg/mL (≈ 0.131 µM) in test [9]; ≥ 0.08 µg/mL in test [11]. The IC90 in [13] and in [14] was > 50 µg/mL in each case. Besides, the “Wheat Fusarium Head Blight Control at a compound concentration of 25 ppm or lower” value in [4] is “B (from 50 to 69% control of wheat fusarium head blight)”. Also, the “Wheat Leaf Rust Control … of 10 ppm or lower” value in test [5] was “AA (≥85% control of wheat leaf rust)”. In addition, the “Septoria Leaf Blotch Control at a compound concentration of 25 ppm or lower” value in test [8] was “AA (≥85% control of wheat septoria leaf blotch)”. For the same molecule, in test [10], the “Cucumber Powdery Mildew Control at a compound concentration of 10 ppm or lower” value is reported as “AA (≥85% control of cucumber powdery mildew)”. Further, the “Asian Soybean Rust Control … of 25 ppm or lower” value in test [12] was “AA (≥85% control of Asian soybean rust)”.

On to `COc1ccc(F)cc1[C@H](Cn1c(=O)n(C(C)(C)C(=O)NC(C)C)c(=O)c2c(C)c(-n3nccn3)sc21)OCC(C)(C)C#N` [Compound I-213, (R)-2-(1-(2-(2-cyano-2-methylpropoxy)-2-(5-fluoro-2-methoxyphenyl)ethyl)-5-methyl-2,4-dioxo-6-(2H-1,2,3-triazol-2-yl)-1,4-dihydrothieno[2,3-d]pyrimidin-3 (2H)-yl)-N-isopropyl-2-methylpropanamide], for which, in test [1], the “Barley Powdery Mildew Control at a compound concentration of 10 ppm or lower” value is “A (from 70% to 84% control of barley powdery mildew)”. For the same molecule, the IC90 in [2] was 0.08 µg/mL (≈ 0.128 µM); in [3], 0.08 µg/mL (≈ 0.128 µM); in [6], 0.4 µg/mL (≈ 0.639 µM); in [7] it was 0.4 µg/mL (≈ 0.639 µM); in test [9] it was 0.4 µg/mL (≈ 0.639 µM); in test [11] it was ≥ 0.08 µg/mL. The IC90 in test [13] and in test [14] was > 50 µg/mL each time. For the same molecule, the “Wheat Fusarium Head Blight Control at a compound concentration of 25 ppm or lower” value in test [4] is reported as “B (from 50 to 69% control of wheat fusarium head blight)”. Also, the “Wheat Leaf Rust Control … of 10 ppm or lower” value in test [5] was “B (from 50 to 69% control of wheat leaf rust)”. The “Septoria Leaf Blotch Control at a compound concentration of 25 ppm or lower” value in [8] was “AA (≥85% control of wheat septoria leaf blotch)”. Besides, the “Cucumber Powdery Mildew Control at a compound concentration of 10 ppm or lower” value in test [10] is on record as “AA (≥85% control of cucumber powdery mildew)”. For the same molecule, the “Asian Soybean Rust Control … of 25 ppm or lower” value in test [12] was “B (from 50 to 69% control of Asian soybean rust)”.

`CCOC(=O)c1sc2c(c1C)c(=O)n([C@H](C)C(=O)N(C)C(C)C)c(=O)n2C[C@H](OCCC#N)c1cc(F)ccc1OC` [Compound I-229, (R)-ethyl-1-(2-(2-cyanoethoxy)-2-(5-fluoro-2-methoxyphenyl)ethyl)-3-((R)-1-(isopropyl(methyl)amino)-1-oxopropan-2-yl)-5-methyl-2,4-dioxo-1,2,3,4-tetrahydrothieno[2,3-d]pyrimidine-6-carboxylate]: the “Barley Powdery Mildew Control at a compound concentration of 10 ppm or lower” value in [1] was “AA (≥85% control of barley powdery mildew)”. For the same molecule, the IC90 in test [2] turned out to be 2 µg/mL (≈ 3.32 µM); in [3] it was 0.08 µg/mL (≈ 0.133 µM); in test [6], 2 µg/mL (≈ 3.32 µM); in test [7] it was 0.4 µg/mL (≈ 0.664 µM); in [9], 2 µg/mL (≈ 3.32 µM); in test [11], 2 µg/mL (≈ 3.32 µM). The IC90 in [13] and in [14] was > 50 µg/mL in each case. Besides, the “Wheat Fusarium Head Blight Control at a compound concentration of 25 ppm or lower” value in [4] was “C (from 25 to 49% control of wheat fusarium head blight)”. For the same molecule, in test [5], the “Wheat Leaf Rust Control … of 10 ppm or lower” value is listed as “B (from 50 to 69% control of wheat leaf rust)”. In test [8], the “Septoria Leaf Blotch Control at a compound concentration of 25 ppm or lower” value is on record as “D (<25% control of wheat septoria leaf blotch)”. Also, the “Cucumber Powdery Mildew Control at a compound concentration of 10 ppm or lower” value in [10] is on record as “AA (≥85% control of cucumber powdery mildew)”. Also, the “Asian Soybean Rust Control … of 25 ppm or lower” value in test [12] was “C (from 25 to 49% control of Asian soybean rust)”.
